Columns and labels:
[1] = system: intracellular NO in SH-SY5Y cells; assay: 6-OHDA-induced NO production (DAF-FM diacetate); type: cell-based, Human
Procedure: Intracellular NO was evaluated by using the fluorescent probe 4-amino-5-methylamino-2′,7′-difluorofluoresecin diacetate (DAF-FM diacetate), which is cell-permeant and diffuses passively across cellular membranes. Once inside the cells, DAF-FM diacetate is deacetylated by intracellular esterases to DAF-FM. DAF-FM is essentially non-fluorescent until DAF-FM reacts with NO. Thus, it can be used to quantify intracellular NO production. The cells were seeded in 96-well, black bottom-clear plates. […] The cells were then washed twice in PBS and the fluorescence was evaluated in a multi-label counter at an excitation wavelength of 495 nm and an emission wavelength of 515 nm. The increase in fluorescence for each treatment was calculated as the relative fluorescence of each treatment compared with the untreated control cells.
Augmented NO production subsequent to iNOS induction appears to play an important role in the initial phase of 6-OHDA-induced neuro-damage models in vitro and in vivo (Singh, Das et al. 2005; Lin, Uang et al. 2007; Shih, Chen et al. 2011). […] Expression of the total iNOS proteins were determined by Western blot analysis. […] Results of FIGS. 4A-C are expressed as a percentage of relative fluorescent intensity (RFI) of the Control group. ###P<0.005 versus control group; *p<0.05, **p<0.01 and *** p<0.005 versus 6-OHDA group.

SH-SY5Y cells [2] = assay: MTT neuroprotection against 6-OHDA-induced cytotoxicity; type: cell-based, Human
Procedure: (§1) Human neuroblastoma SH-SY5Y cells were purchased from the American Type Culture Collection (ATCC, Manassas, Va., USA) and cultured in a humidified 5% (v/v) CO2 atmosphere in 37° C. in Dulbecco's Modified Eagle Medium (DMEM) (Life technologies, NY, USA) supplemented with 10% FBS, 1% penicillin (100 U/mL) and streptomycin (100 μg/mL). All experiments were carried out 48 h after the cells were seeded.
Cell viability was determined by 3-(4,5-dimethyl-2-thiazolyl) 2,5-diphenyl-2H-tetrazolium bromide (MTT) assay (Sigma-Aldrich, USA). SH-SY5Y cells were seeded in 96-well plates (1×10^4 cells/well) for 48 h. SH-SY5Y cells were pre-treated with different concentrations of the five lignans (i.e. Schizandrin A, Schizandrin B, SC, Schizandrol A and SchiA) for 12 h and the cell viability was checked by MTT assay. Otherwise, SH-SY5Y cells were pre-treated with different concentrations of the five lignans for 12 h and then exposed to 400 μM 6-OHDA for 4 h. Cells were incubated at 37° C. for 4 h in 0.5 mg/mL MTT solution (prepared in serum free DMEM medium). The medium was then removed, and 100 μL of DMSO was added to each well to dissolve the violet-formazan crystals. The absorbance at 570 nm with 655 nm as a reference wavelength was measured by a multi-label counter (Wallac VICTOR3TMV, Perkin Elmer, Netherlands). Cell viability was expressed as a percentage of the value of the cells without 6-OHDA treatment. The LC50 and EC50 were calculated by GraphPad Prism V5.0 (GraphPad Software, Inc., San Diego, Calif.).
To further study the neuroprotective activities of the five lignans against 6-OHDA-induced cytotoxicity, cells were treated with various concentrations (3, 6, 12, 25, 50 and 100 μM) of the tested compounds for 12 h before exposed to 400 μM 6-OHDA for 4 h.

SH-SY5Y cells [3] = assay: MTT neuroprotection against MPP+-induced cell damage; type: cell-based
Procedure: as §1
In another study, SH-SY5Y cells were seeded in 96-well plates (1×10^4 cells/well) for 48 h. SH-SY5Y cells were pre-treated with different concentrations of the five lignans for 12 h and the cell viability was checked by MTT assay. SH-SY5Y cells were pre-treated with different concentrations of the five lignans for 12 h and then exposed to 2 mM MPP or vehicle for 36 h. Cells were incubated at 37° C. for 4 h in 0.5 mg/mL MTT solution (prepared in serum free DMEM medium). The medium was then discarded and 100 μL of DMSO was added to each well to dissolve the violet-formazan crystals. The absorbance at 570 nm with 655 nm as a reference wavelength was measured by a multi-label counter (Wallac VICTOR3TMV, Perkin Elmer, Netherlands). Cell viability was expressed as a percentage of the value of the cells without MPP treatment. The LC50 and EC50 were calculated by GraphPad Prism V5.0 (GraphPad Software, Inc., San Diego, Calif.).
To evaluate the cytotoxicity of five selected lignans of S. chinensis, SH-SY5Y cells were treated with various concentrations of the tested compounds for 12 h and the cell viability was measured using the MTT assay. […] To further study the neuroprotective activities of the five lignans in vitro, cells were treated with various concentrations of the tested compounds for 12 h before exposed to MPP^+. […] Values represent mean±S.D. ###P<0.005 versus control group; *p<0.05, **p<0.01 and *** p<0.005 versus MPP group. […] The therapeutic index of SchiA and SC were 14.9 and 8.8, respectively.
The inventors also investigated the contribution of the PI3K/Akt pathway in the neuroprotective effects of SchiA. The inventors measured phosphorylation-Akt (p-Akt) levels after pre-treated with 60 μM SchiA for 12 h and then exposed to 2 mM MPP for another 36 h. […] And MPP^+-induced down-regulation of Akt expressions was inhibited by SchiA treatment. […] To further validate whether the activation of PI3K/Akt signaling pathway, the inventors determined the blocking effect of PI3K/Akt inhibitor such as AKT inhibitor IV on the in vitro neuroprotective effect of SchiA. SH-SY5Y cells were pre-incubated with Akt inhibitor IV (2 μM) for 1 h and then treated with SchiA for 12 h. Drug-treated cells were further treated with 2 mM MPP for another 36 h, MTT assay was used to determinate cell viability.

COc1cc2c(c(OC)c1OC)-c1c(cc3c(c1OC)OCO3)C[C@H](C)[C@](C)(O)[C@H]2OC(=O)c1ccccc1 [SchiA, Schisantherin A]
6-OHDA-induced increase in DAF-FM fluorescence (NO) ([1]; 60 μM 12 h, then 400 μM 6-OHDA 2 h): inhibited such increase in DAF-FM fluorescence | DAF-FM fluorescence intensity, compound alone ([1]; 60 μM, without 6-OHDA): no effect | protection against 6-OHDA-induced damage (cell viability) (SH-SY5Y cells [2]; 3, 6, 12, 25, 50 and 100 μM for 12 h before 400 μM 6-OHDA 4 h): protected SH-SY5Y cells against 6-OHDA-induced damage in a dose-dependent manner | EC50 (SH-SY5Y cells [2]; pre-treated 12 h, then 400 μM 6-OHDA 4 h): 8.1 µM | EC50 (SH-SY5Y cells [3]; pre-treated 12 h, then 2 mM MPP+ 36 h): 8.1 µM | protection against MPP+-induced cell damage (cell viability) (SH-SY5Y cells [3]; various concentrations 12 h before MPP+): protect against MPP^+-induced cell damage in a dose-dependent manner

Reference: patent US20150366839A1, “Schisantherin A for the treatment of neurodegenerative diseases” (priority 2014, published 2015)
